Results on 7 molecules are retold here after patent publication US20250221967A1, “COMPOSITIONS AND METHODS FOR THE TREATMENT OF CANCER AND OTHER PROLIFERATIVE DISEASES” (THE WISTAR INSTITUTE OF ANATOMY AND BIOLOGY, priority 2022, published 2025).

Entries after “also recorded” stand apart in the source; their conditions may differ.

In one assay the target is T1, Rb-NT (380-785) (Homo sapiens, UniProt P06400).
T1 construct: Rb-NT (380-785)
T1 sequence (P06400 380-785): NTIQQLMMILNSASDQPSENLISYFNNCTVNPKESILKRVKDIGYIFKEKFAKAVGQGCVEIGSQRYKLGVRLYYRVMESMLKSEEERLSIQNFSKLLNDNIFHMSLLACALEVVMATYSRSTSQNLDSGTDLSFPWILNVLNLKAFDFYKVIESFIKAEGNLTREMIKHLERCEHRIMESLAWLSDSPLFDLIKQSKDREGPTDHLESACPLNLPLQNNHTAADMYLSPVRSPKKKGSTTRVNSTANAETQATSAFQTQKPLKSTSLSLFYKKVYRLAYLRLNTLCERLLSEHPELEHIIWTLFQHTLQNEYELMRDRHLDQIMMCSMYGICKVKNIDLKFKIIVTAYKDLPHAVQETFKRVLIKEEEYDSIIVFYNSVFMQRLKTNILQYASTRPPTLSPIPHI
As to the kind of experiment: Inhibition of AP-8-239 binding to Rb-NT (380-785). Conditions: for Inhibition of AP-8-239 binding Rb-NT (380-785) Top: top of inhibition curve.

The target of assay [1] is T2, HDAC1 binding Rb-NT (380-785) (Homo sapiens, UniProt P06400).
T2 construct: Rb-NT (380-785)
T2 sequence (P06400 380-785): T1 sequence (P06400 380-785)
As to the kind of experiment: Inhibition of HDAC1 binding to Rb-NT (380-785). Conditions: for Inhibition of HDAC1 binding Rb-NT (380-785) Top: top of inhibition curve. The protocol:
Additionally, the binding of different proteins was evaluated. The binding of E7, E2F1, MDM2, and HDAC1 were evaluated to Rb fragments. The compounds tested herein where shown inhibit HDAC1 binding to the Rb fragments in the LxCxE binding pocket.

A further assay deals with T3, Rb protein (Homo sapiens, UniProt P06400).
T3 sequence (P06400 380-785 limits assumed): T1 sequence (P06400 380-785)
As to the kind of experiment: Iodoacetamide capping of Cys residues of compound-treated Rb protein, MALDI-MS. Conditions: for # of CH2CONH2: RB + compound + Iodoacetamide, RB + DMSO control gives 8; for Cys residues masked from reacting with the iodoacetamide: Rb protein treated with compound, then iodoacetamide. As to the method: Further studies were conducted to evaluate the binding of the compounds to the Rb protein. Using MS, the […] that had been treated with excess amounts of the compounds were then capped with iodoacetamide. […] Furthermore, there was a significant reduction in MS/MS sequencing events. […] One explanation is that the compound activates Cys706 for nucleophilic attack from Cys712.
In order to confirm that, the Rb protein was treated with iodoacetamide to cap the Cys residues. The predicted chart is shown below.

Assay [2] deals with thioglycolate-induced macrophages. As to the kind of experiment: Macrophage viability by Annexin V/DAPI staining. The class given is cell-based. Conditions: different concentrations, 16 hours, listed as AP-3-84. The protocol:
(§1) FIGS. 1A-B. Novel Rb1 modulator AP-3-84 induces cell death specifically in macrophages. (FIG. 1A) Tumor PDAC cells and thioglycolate-induced macrophages were cultured with different concentrations of AP-3-84 Rb1 modulator for 16 hours with the following assessment of viability by Annexin V/DAPI staining. […] (FIG. 1B) Thioglycollate-induced macrophages were cultured with 10 uM AP-3-84 for 4 hours and gene expression changes were studied by RNA-Seq.

For a further assay, the system named is Tumor PDAC cells. Nature of the assay: Tumor cell viability by Annexin V/DAPI staining. The class given is cell-based. Conditions: different concentrations, 16 hours, listed as AP-3-84. The protocol:
as §1

Assay [3] relates to Thioglycollate-induced macrophages. Nature of the assay: Gene expression changes by RNA-Seq. It is filed as cell-based. Conditions: 10 uM, 4 hours, listed as AP-3-84. As to the method: as §1
The test system of assay [4] is PDA T high cell line. Nature of the assay: Orthotopic PDA T high pancreatic tumor model in B6 wild-type mice. It is filed as in vivo. Conditions: 7 daily treatments from day 4, tumors collected day 22, listed as AP-3-84. As to the method: (§2) (FIGS. 2A-B) B6 wild-type mice were orthotopically injected with PDA T high cell line into the pancreas. T high PDA cell line was previously generated by Dr. Stanger's lab (Upenn), this tumor cell line can induce some T cell infiltration opposite to T low PDA cell line (shown in FIGS. 4A-C). Mice were treated with 7 daily AP-3-84 or vehicle starting from day 4. On day 22 pancreatic tumors were collected and compared across two groups. […] (FIG. 2C) B6 wild-type mice were injected subcutaneously with PDA T high tumor cells and treated with AP-3-84 or vehicle as in FIGS. 2A-B. Tumor growth was measured until day 31. […] (FIG. 2D) Same experiment as in FIGS. 2A-B was conducted in NSG immunodeficient mice.
Statistical analysis of the data was conducted using unpaired Student t-test criteria with additional false discovery rate adjustment for multiple comparisons for gene expression analysis.

For the next assay, the system named is PDA T high tumor cells. As to the kind of experiment: Subcutaneous PDA T high tumor model in B6 wild-type mice. Conditions: measured until day 31. It is filed as in vivo. The protocol:
as §2

For assay [5], the system named is PDA T high cell line. As to the kind of experiment: Orthotopic PDA T high tumor model in NSG immunodeficient mice. It is filed as in vivo. The protocol:
as §2

The test system of assay [6] is tumor-associated macrophages. As to the kind of experiment: Flow cytometry of immune cells in orthotopic PDA T high model. The class given is in vivo, mice. As to the method: FIGS. 3A-B. AP-3-84 depletes tumor macrophages and re-shapes immune cell landscape. (FIGS. 3A-B) B6 wild-type mice were orthotopically injected with PDA T high cell line into the pancreas and treated with AP-3-84 or vehicle as in FIGS. 2A-D. Tumor cells on day 12 (FIG. 3A) or peritoneum cells on day 21 (FIG. 3B) were analyzed by flow cytometry. […] Significant effects on activation and differentiation of immune cells in tumor and periphery were also found (not shown).

The subject of a further assay is PDA T low cell line. Nature of the assay: PDA T low tumor model (orthotopic or subcutaneous) in B6 wild-type mice. It is filed as in vivo. The protocol: FIGS. 4A-C. AP-3-84 renders more resistant PDA tumors with low T cell infiltration into immunotherapy responsive tumors. […] Statistical analysis of the data was conducted using unpaired Student t-test criteria with additional false discovery rate adjustment for multiple comparisons for gene expression analysis.

Assay [7] concerns AML cell lines (THP-1, AML-193, Kasumi-1). As to the kind of experiment: Cell death in AML cell lines (Annexin-V flow cytometry, Alamar blue). It is filed as cell-based. As to the method:
(§3) Additionally, the inventors obtained test results showing the compounds to be effective in models of AML. AML cell lines (THP-1, AML-193, Kasumi-1) were cultured at different cell concentration (75000/ml, 125,000/ml and 200,000/ml) and exposed to 5, 10, 15, 20 μM concentration of AP-3-84. Cell differentiation was induced by 100 ng/ml PMA over 24 hours. Nonhemopoietic cancer cells (ID8, PDAC) were analyzed after exposure to AP-3-84. Cell death outcomes were measured by Annexin-V using flowcytometry or viability measures by Alamar blue assay. Protein levels were measured by Western blots at intervals between 30 min and 6 hours after exposure to AP-3-84 for total Rb1, phosphorylated Rb1, ATF3, BIM, NOXA, BaK, Bax, cleaved PARP, cleaved Caspase-3. Cytoplasmic and mitochondrial lysates were examined. Confocal immunocytochemistry on Rb1 expression in nucleus versus cytoplasm was performed.

Assay [8] relates to PMA differentiated THP1 cells. As to the kind of experiment: Cell death in PMA differentiated THP-1 cells. The class given is cell-based. Conditions: PMA treated THP-1 cells; listed as AP-3-84. The protocol:
as §3

For assay [9], the system named is Nonhemopoietic cancer cells (ID8, PDAC). Nature of the assay: Cell death in nonhemopoietic cancer cells. It is filed as cell-based. Conditions: listed as AP-3-84. The protocol: as §3
Assay [10] relates to nonhemopoitic cancer cells. Nature of the assay: Cell proliferation by CFSE dye dilution. It is filed as cell-based. Conditions: nonhemopoietic cancer cells. An excerpt:
FIG. 22A-22C. […] A. Graphs indicates the total percentage of cell death (annexin V+ and AnnexinV+Live-Dead+ cells) in PMA treated THP-1 cells. […] C. Histogram indicates cell proliferation, measured by CSFE dye dilution in presence of AP-3-84 and other inhibitors. Bar diagram indicates average MFI of CFSE dye in presence of different inhibitors.

The subject of a further assay is THP-1 cell line. As to the kind of experiment: Western blots of ER stress and apoptosis proteins. The class given is cell-based. Conditions: Western blot, listed as AP-3-84. As to the method:
as §3

On to `COc1cccc(-n2sc(=O)n(C)c2=O)c1` [AP-03-084], for which, on Rb-NT (380-785), the IC50 is 445 nM and the Inhibition of AP-8-239 binding Rb-NT (380-785) Top was 90.1%. In assay [1], the 50% inhibitory concentration (IC50) is 89 nM and the Inhibition of HDAC1 binding Rb-NT (380-785) Top was found to be 75%. Besides, at Rb protein, the “# of CH2CONH2” value is reported as 2 and the “Cys residues masked from reacting with the iodoacetamide” value worked out at 6. Further, in [2], the macrophage cell death result is “can induce cell death of TAMs and thioglycolate-induced macrophages; also recorded: induced macrophage cell death in dose-dependent manner”. In the assay with Tumor PDAC cells, the “PDA tumor cell viability / death of other cell types” value is listed as “not of the other cell types (neither tumor nor T cells); also recorded: didn't affect PDA tumor cell viability”. Besides, the gene expression changes entry in [3] is “induction of oxidative and ER stress programs with a clear activation of p53-dependent genes and caspases; also recorded: induced strong unfolded protein and oxidative stress response with the induction of apoptosis pathway and p53 signaling”. For the same molecule, the pancreatic tumor growth entry in the assay on PDA T high cell line [4] is reported as “significant reduction of tumor growth; also recorded: significantly reduced the tumor growth in mice”. Besides, in the assay on PDA T high tumor cells, the tumor growth result is “Significant reduction of tumor growth”. In the assay with PDA T high cell line [5], the tumor growth result is reported as “No effect of AP-3-84 treatment was observed”. Besides, the “immune cell composition in the peritoneum” value in [6] (peritoneum cells on day 21, flow cytometry) is on record as “re-shapes the immune cell composition in the peritoneum”. The “tumor-associated macrophages in tumors” value in [6] (tumor cells on day 12, flow cytometry, listed as AP-3-84) was “depleting macrophages and inducing T cell infiltration; also recorded: effectively depletes tumor-associated macrophages in tumors”. The “tumor growth, AP-3-84 treatment alone” value with PDA T low cell line (orthotopic and subcutaneous models) is “didn't dramatically affect the tumor growth”. The “tumor growth, combined with Immunotherapy” value in the assay on PDA T low cell line (with anti-PD1/anti-CTLA4/anti-CD40, listed as AP-3-84) is “decrease tumor burden in T-low-PDA model; also recorded: effectively reduced the tumor growth compared to monotherapies”. The “cells undergoing cell death” value in [7] (5 minute exposure, 24 hours later) is given as 70-80%. Also, in assay [7] (AML cells, tested at 5, 10, 15, 20 μM), the “concentration at which induction of cell death was observed” value is at least 10 µM. In [7] (THP-1, AML-193, Kasumi-1, annexin V+ and AnnexinV+Live-Dead+ cells), the “cell death in AML cell lines” value is recorded as “induced cell death in different AML cell lines”. Further, the cell death result in assay [8] was “no cell death was induced; also recorded: minor effect on PMA treated THP-1 cells”. Moreover, the cell death entry in [9] is listed as “no cell death was induced; also recorded: does not induce cell death in ID8 cells”. Further, the cell division rate entry in assay [10] is reported as “No effect in cell division rate”. The “apoptosis proteins (NOXA, BIM, cleaved-PARP, cleaved Caspase-3)” value in the assay on THP-1 cell line (10 uM in FIG. 23A) was “increased mitochondrial protein levels of NOXA, BIM, cleaved-PARP, and cleaved Caspase-3; also recorded: induction of Cleaved-PARP, Noxa and Cleaved-caspase 3”. In the assay on THP-1 cell line, the “Bax, Bak, Bcl-2, Bcl-xl levels” value was “Bax and Bak levels were unchanged; also recorded: Bax Bcl-2 and Bcl-xl does not get altered”; the “ER-stress signals (ATF4, ATF3, peIF2a)” value is “induced higher levels of ER-stress signals (higher ATF4, ATF3); also recorded: Induction of ATF4, ATF3 and peIF2a”.
At Rb-NT (380-785), `Cn1c(=O)sn(-c2cccc(OCCCN)c2)c1=O` [AP-08-231] displayed a half-maximal inhibitory concentration (IC50) of 362 nM and an Inhibition of AP-8-239 binding Rb-NT (380-785) Top of 83.3%. For the same molecule, in assay [1], the IC50 stood at 77 nM and the Inhibition of HDAC1 binding Rb-NT (380-785) Top is 72%.
The like results for `Cn1c(=O)sn(-c2cccc(OCCCNC(=O)CC[C@@H](NC(=O)c3ccc(NCCc4cc5c(=O)[nH]c(N)nc5[nH]4)cc3)C(=O)O)c2)c1=O` [AP-08-237] were, in that order, 22 nM, 85.9%, 171 nM and 72%.
The like results for `Cn1c(=O)sn(-c2cccc(OCCCNC(=O)c3ccccc3)c2)c1=O` [AP-08-238] were, in that order, 54 nM, 90.6%, 83 nM and 71%.
In the case of `Cn1c(=O)sn(-c2cccc(OCCCNC(=S)Nc3ccc4c(c3)C(=O)OC43c4ccc(O)cc4Oc4cc(O)ccc43)c2)c1=O` [AP-08-239], at Rb protein, the “# of CH2CONH2” value was found to be 6 and the “Cys residues masked from reacting with the iodoacetamide” value amounted to 2.
At Rb-NT (380-785), `C=CC(=O)N(C)C(=O)Nc1cccc(OC)c1` [SA-01-048] gave an IC50 of 2920 nM and an Inhibition of AP-8-239 binding Rb-NT (380-785) Top of 83.8%. In [1], this molecule displayed a 50% inhibitory concentration (IC50) of 12700 nM and an Inhibition of HDAC1 binding Rb-NT (380-785) Top of 69%.
The like results for `O=c1sn(-c2cccc3ccccc23)c(=O)n1Cc1ccccc1` [Tideglusib, reference compound] were, in that order, 126 nM, 86.9%, 40 nM and 77%.
